Measured values taken from article PMC9329436, “Optimization of the 4-anilinoquin(az)oline scaffold as epidermal growth factor receptor (EGFR) inhibitors for chordoma utilizing a toxicology profiling assay platform” (Scientific Reports, 2022).
Values joined by “and” are separate entries in the source; they are usually repeats but may differ in a detail not shown here. Equal values may be shown once.

What was measured:
[1] = system: CH22 patient-derived chordoma cell line; assay: Cell viability assay (alamarBlue, 72 h), CH22; type: cell-based, human; conditions: n = 4, 72 h
Experimental: (§1) Chordoma cell lines were cultured as described previously[10],[12],[33],[34]. Briefly, U-CH1 and U-CH2 cell lines were cultured in 4:1 IMDM:RPMI medium supplemented with 10% fetal bovine serum (FBS) and 1% penicillin/streptomycin in gel-coated flasks. […] CH22, UM-Chor1, U-CH12, and U-CH7 cell lines were cultured in RPMI medium supplemented with 10% FBS and 1% penicillin/streptomycin. The cell lines all undergo regular mycoplasma screening.
(§2) Cells were seeded in 384 well plates and were treated with test compound in quadruplicate 24 h after plating. Cell viability was assessed at 72 h using alamarBlue (ThermoFisher, USA). […] IC50 values were determined by four-parameter nonlinear regression analyses using GraphPad Prism™ version 8 software (San Diego, CA).

[2] = system: U-CH12 patient-derived chordoma cell line; assay: Cell viability assay (alamarBlue, 72 h), U-CH12; type: cell-based, human; conditions: n = 4, 72 h
Experimental: as §1, §2

HL60 cells = assay: AsedaSciences SYSTEMETRIC Cell Health Screen (flow cytometry toxicity profiling); conditions: for CC: Cell Cycle score / CM: Cell morphology score / CMI: Cell membrane integrity score / GSH: Glutathione score / MMP: Mitochondrial membrane depolarization score / NMI1: Nuclear membrane integrity 1 score / NMI2: Nuclear membrane integrity 2 score / ROS: Reactive superoxide species score / CHI: Cell Health Index: HL60, 4 h, 5 nM–100 µM; for CC: Cell Cycle score / CM: Cell morphology score / CMI: Cell membrane integrity score / GSH: Glutathione score / MMP: Mitochondrial membrane depolarization score / NMI1: Nuclear membrane integrity 1 score / NMI2: Nuclear membrane integrity 2 score / ROS: Reactive superoxide species score: probability 0–1, n = 2; for CHI: Cell Health Index: probability (0–1) of high-risk class, n = 2
Summary of the method: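 Risk scores derive from a logistic-regression ML classifier comparing flow-cytometric stress phenotypes with those of 300 reference compounds of known high or low human risk. Phenotypes: light scatter plus fluorescent physiological dyes, twelve parameters, no gating. Compounds tested 5 nM–100 µM (3× steps, duplicate) on HL60 cells, 4 h, 37 °C.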

[3] = system: WS1 human fibroblast cell line; assay: Cell viability assay, WS1 toxicity control; type: cell-based; conditions: n = 4, nonspecific toxicity control
Experimental: as §2

[4] = system: UM-Chor1 patient-derived chordoma cell line; assay: Cell viability assay (alamarBlue, 72 h), UM-Chor1; type: cell-based, human; conditions: n = 4, 72 h
Experimental: as §1, §2

U-CH1 chordoma cell line = assay: Cell viability assay (alamarBlue, 72 h), U-CH1; type: cell-based, human; conditions: n = 4, 72 h
Summary of the method: (§3)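 Compound added in quadruplicate 24 h after plating; cultures maintained in 4:1 IMDM:RPMI, 10% FBS, gel-coated flasks.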

U-CH2 chordoma cell line = assay: Cell viability assay (alamarBlue, 72 h), U-CH2; type: cell-based, human
Summary of the method: as §3

EGFR = EGFR (Homo sapiens, UniProt P00533); assay: ProQinase in-cell EGFR assay (EGFR phosphorylation in A431 cells); type: cell-based; parameters: This cell line endogenously expresses a high level of EGFR; endogenous in cells; host or cells: A431; conditions: ProQinase in-cell EGFR assay, A431 cells, n = 1
Sequence of EGFR (P00533 25-1210): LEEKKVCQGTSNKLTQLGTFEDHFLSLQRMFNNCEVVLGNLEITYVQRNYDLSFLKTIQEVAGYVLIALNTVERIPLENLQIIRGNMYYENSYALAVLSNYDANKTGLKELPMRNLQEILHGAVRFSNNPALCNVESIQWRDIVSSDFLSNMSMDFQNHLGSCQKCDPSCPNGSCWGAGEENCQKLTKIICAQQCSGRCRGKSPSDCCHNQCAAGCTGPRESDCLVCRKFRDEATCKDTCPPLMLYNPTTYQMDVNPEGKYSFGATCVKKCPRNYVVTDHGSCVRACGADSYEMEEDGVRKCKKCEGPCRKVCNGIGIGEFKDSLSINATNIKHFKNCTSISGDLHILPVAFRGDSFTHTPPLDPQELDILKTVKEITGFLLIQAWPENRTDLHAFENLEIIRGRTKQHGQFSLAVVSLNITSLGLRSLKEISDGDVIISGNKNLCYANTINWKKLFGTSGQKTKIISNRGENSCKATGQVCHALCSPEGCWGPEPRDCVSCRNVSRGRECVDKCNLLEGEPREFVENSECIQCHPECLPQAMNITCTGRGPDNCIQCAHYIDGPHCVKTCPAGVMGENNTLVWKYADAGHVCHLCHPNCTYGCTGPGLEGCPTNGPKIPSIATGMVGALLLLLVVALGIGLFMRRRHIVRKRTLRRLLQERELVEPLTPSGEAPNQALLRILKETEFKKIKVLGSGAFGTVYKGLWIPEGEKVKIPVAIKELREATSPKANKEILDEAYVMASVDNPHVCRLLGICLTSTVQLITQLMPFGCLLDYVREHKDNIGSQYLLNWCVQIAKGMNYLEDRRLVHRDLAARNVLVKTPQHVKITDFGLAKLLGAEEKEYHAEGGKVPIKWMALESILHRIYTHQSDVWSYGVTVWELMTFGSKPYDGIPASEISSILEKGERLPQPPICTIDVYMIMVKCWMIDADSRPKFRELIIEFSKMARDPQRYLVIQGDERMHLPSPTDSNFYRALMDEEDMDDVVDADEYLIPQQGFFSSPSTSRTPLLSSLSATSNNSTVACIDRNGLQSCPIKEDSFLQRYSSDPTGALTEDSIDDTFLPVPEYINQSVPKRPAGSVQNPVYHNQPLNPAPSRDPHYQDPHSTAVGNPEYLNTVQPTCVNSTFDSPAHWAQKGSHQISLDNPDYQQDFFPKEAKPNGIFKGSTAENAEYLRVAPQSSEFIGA
Description: In addition, we ran an EGFR in-cell target engagement assay, measuring in-cell EGFR phosphorylation, using the human epidermoid carcinoma cell line A431. This cell line endogenously expresses a high level of EGFR, and stimulation of these cells with human epidermal growth factor (EGF) results in receptor tyrosine autophosphorylation.

[5] = system: U-CH7 patient-derived chordoma cell line; assay: Cell viability assay (alamarBlue, 72 h), U-CH7; type: cell-based, human; conditions: n = 4, 72 h
Experimental: as §1, §2

[6] = SYSTEMETRIC Cell Health Screen, assay n=2

Structure (SMILES) | IC50 [1] [µM] | IC50 [2] [µM] | CC: Cell Cycle score (HL60 cells) | CM: Cell morphology score (HL60 cells) | CMI: Cell membrane integrity score (HL60 cells) | GSH: Glutathione score (HL60 cells) | MMP: Mitochondrial membrane depolarization score (HL60 cells) | NMI1: Nuclear membrane integrity 1 score (HL60 cells) | NMI2: Nuclear membrane integrity 2 score (HL60 cells) | ROS: Reactive superoxide species score (HL60 cells) | CHI: Cell Health Index (HL60 cells) | IC50 [3] [µM] | IC50 [4] [µM] | IC50 (U-CH1 chordoma cell line) [µM] | IC50 (U-CH2 chordoma cell line; n = 4, 72 h) [µM] | IC50 (EGFR) [µM] | IC50 [5] [µM] | further results
C#Cc1cccc(Nc2c(C#N)cnc3cc(I)ccc23)c1 [Compound 32] | > 100 | > 100 | 0.95 | 1.00 | 1.00 | 0.98 | 0.99 | 0.95 | 0.94 | 0.99 | 0.81 | > 100 | > 100 | > 100 | > 100 | 2.7 | > 100 | Cell Health Toxcity Profile CC (DyeCycle Violet) (HL60 cells; [6]): 0.95; Cell Health Toxcity Profile CM (Cell morphology) (HL60 cells; [6]): 1.00; Cell Health Toxcity Profile CMI (Cell membrane integrity) (HL60 cells; [6]): 1.00; Cell Health Toxcity Profile GSH (Glutathione) (HL60 cells; [6]): 0.98; Cell Health Toxcity Profile MMP (Mitochondrial membrane depolarization) (HL60 cells; [6]): 0.99; Cell Health Toxcity Profile NMI1 (Nuclear membrane integrity 1) (HL60 cells; [6]): 0.95; Cell Health Toxcity Profile NMI2 (Nuclear membrane integrity 2) (HL60 cells; [6]): 0.94; Cell Health Toxcity Profile ROS (Reactive superoxide species) (HL60 cells; [6]): 0.99; Cell Health Toxcity Profile CHI (HL60 cells; SYSTEMETRIC Cell Health Screen, classifier output, assay n=2): 0.81
C#Cc1cc(Nc2ncnc3ccc(I)cc23)ccc1F [Compound 36] | > 100 | > 100 | 0.038 | 0.011 | 0.31 | 0.068 | 0.13 | 0.24 | 0.048 | 0.35 | 0.27 | > 100 | > 100 | 2.7 | > 100 | 2.7 | > 100 | 
C#Cc1cc(Nc2ncnc3ccc(I)cc23)ccc1Cl [Compound 37] | > 100 | > 100 | 0.080 | 0.26 | 0.54 | 0.18 | 0.24 | 0.41 | 0.33 | 0.91 | 0.33 | > 100 | > 100 | 31 | 5 | 2 | > 100 | 
C#Cc1cccc(Nc2ncnc3cc(I)ccc23)c1 [Compound 15] | > 100 | > 100 | 0.95 | 1.00 | 1.00 | 0.98 | 0.99 | 0.21 | 0.94 | 1.00 | 0.77 | > 100 | > 100 | 17 | > 100 | 2.8 | > 100 | 
C#Cc1cc(Nc2ncnc3cc(I)ccc23)ccc1F [Compound 40] | 50 | > 100 | 0.28 | 0.049 | 0.26 | 0.033 | 0.59 | 0.46 | 0.33 | 0.34 | 0.38 | > 100 | > 100 | > 100 | > 100 | 3.6 | > 100 | U-CH1 IC50 (U-CH1 chordoma cell line): no activity; U-CH2 IC50 (U-CH2 chordoma cell line; n = 4, 72 h): no activity
C#Cc1cccc(Nc2ncnc3ccc(I)cc23)c1 [Compound 9, N-(3-ethynylphenyl)-6-iodoquinazolin-4-amine] |  |  | 0.087 and 0.071 | 0.0063 |  | 0.050 and 0.029 |  | 0.13 and 0.069 |  | 0.083 and 0.088 | 0.21 |  |  |  |  | 0.83 |  | IC50 ([1]; Homo sapiens): > 100 µM; IC50 ([2]; Homo sapiens): > 100 µM; IC50 ([3]; Homo sapiens, Fibroblast): 98 µM; IC50 ([4]; Homo sapiens): > 100 µM; IC50 (U-CH1 chordoma cell line; Homo sapiens, UCH1, 72 h): 8.7 µM; IC50 (U-CH2 chordoma cell line; Homo sapiens, UCH2, n = 4, 72 h): > 100 µM; IC50 ([5]; Homo sapiens): > 100 µM
C#Cc1cccc(Nc2ncnc3cc(OC)ccc23)c1 [Compound 11] | > 100 | > 100 | 0.52 | 0.050 | 0.032 | 0.0085 | 0.068 | 0.61 | 0.15 | 0.63 | 0.25 | 88 | > 100 | 1.9 | 1.2 | 0.53 | 95 | 
C#Cc1ccc(F)c(Nc2ncnc3cc(I)ccc23)c1 [Compound 38] | > 100 | > 100 | 0.98 | 1.00 | 1.00 | 1.00 | 0.96 | 0.99 | 1.00 | 1.00 | 0.88 | > 100 | > 100 | 15 | > 100 | 5.2 | > 100 | 
